Results from patent US6573296B2, “Therapeutic quassinoid preparations with antineoplastic, antiviral, and herbistatic activity” (priority 1997, dated 2003).
pEC50: −log10 of the molar value.

What was measured:
L1210 = test: soft agar disk diffusion zone of inhibition assay; format: cell-based, mice; conditions: 25 ug/disk
CX-1 = test: soft agar disk diffusion zone of inhibition assay; format: cell-based, human; conditions: 25 ug/disk
From the text: (§1) The following human tumors were used: Human adenosquamous lung tumor H-125 (7) and colon tumors H8, HCT-116, and CX-1 were used for in vitro testing only. Each human cell line was maintained in culture until plating was done. HCT-116, H8, and CX-1 were maintained in McCoy's media and heat inactivated fetal bovine serum (11% FBS). It was passaged (1:5 dilution) twice week following enzymatic dissociation using a trypsin/PBS-EDTA mixture. H-125 was maintained in CMRL/Fischer media (1:1) with 11% FBS. It was mechanically dissociated and passaged (3:10 dilution) weekly. For the plating assay, all cells were mechanically dispersed and diluted in the CMRL/Fischer. media mixture.

H8 = test: soft agar disk diffusion zone of inhibition assay; format: cell-based, human; conditions: 25 ug/disk
From the text: as §1

[1] = tested on: leukemia and solid tumor cells; test: in vitro differential cytotoxicity, solid tumor versus leukemia; format: cell-based; conditions: solid tumor versus leukemia zones
[2] = in vivo chemotherapy of SC transplanted tumor; set-up: species or system mice; conditions: mouse, in vivo; C38; IV; days: Glaucarubinone 3,5-10, Holacanthone 3-12, Glaucarubolone 3-6, Chaparrinone 3-9; read-out: MTD Total Dose
From the text: (§2) Mice. Inbreds mice used were C57B1/6, C3H/He, Balb/c, and DBA/2; hybrids were: B6D2F1 (C57B1/6 females×DBA/2 males), and CD2F1 (Balb/c females×DBA/2 males). All mice were obtained from the Frederick Cancer Research Facility, Frederick, Md.
(§3) Tumors were maintained in the mouse strain of origin and were transplanted into either an appropriate F1 hybrid or the strain of origin for therapy trials. All mice were over 17 g at the start of therapy; the range of individual body weights in each experiment was within 2 g. The mice were supplied food and water ad libitum.
(§4) Antitumor Agents. The compound easily dissolved in the diluent which consisted of 3% [V/V (100%-Pure)] Ethanol, 1% (V/V) polyoxyethylanesorbitan monopalmitate (P.O.E.40) and 96% sterile distilled water. The primary route of administration was intravenous (IV).
(§5) […] Chemotherapy. The methods of protocol design, tumor transplantation, drug treatment, endpoint determination, definition of terms, toxicity evaluation, data analysis, quantification of tumor cell kill, and the biologic significance of the drug treatment results with transplantable tumors have been presented. The following is a brief summary of those methods as they apply to the work described.
(§6) The animals necessary to begin an experiment were pooled, implanted bilaterally SC on day 0 with 30 to 60 mg tumor fragments using a 12 gauge trocar, and again pooled before randomization to the various treatment and control group. Chemotherapy was either started within 3 days after tumor implantation while the number of cells per mouse was relatively small (10^7 to 10^8 cells), or allowed to grow to palpation (about 3×10^8 cells) in a more advanced stage trial.
(§7) Tumors were measured with a caliper either once or twice weekly (as needed) until either tumors exceeded 1500 mg or cure was. assured. Tumor weights were estimated from two-dimensional measurements:
(§8) Tumor Weight (mg)=(a×b^2)/2, where a and b are the tumor length and width (mm) respectively.
(§9) Tumor growth delay. (T-C value), where T is the median time (in days) required for the treatment group tumors to reach a predetermined size, and C is the median time (in days) for the control group tumors to reach the same size. Tumor-free survivors were excluded from these calculations (cures were tabulated separately).
(§10) Calculation of tumor cell kill. For SC growing tumors, the log10 cell kill was calculated from the following formula: [formula]
(§11) Where T-C is the tumor growth delay (in days) as described above and Td is the tumor volume doubling time (in days), the latter estimated from the best fit straight line from a log-linear growth plot of the control-group tumors in exponential growth (500 to 1500 mg range). The conversion of the T-C values of log10 cell kill is possible because the Td for tumors regrowing post-treatment approximated the Td values of the tumors in untreated control mice.
(§12) Determination of activity by tumor growth inhibition (T/C value). Measurements were carried out simultaneously in both the treatment and control groups. When the control group tumors reached approximately 750-1500 mg in size (median of group), the median tumor weight of each group was determined (including zeros).

[3] = tested on: colon adenocarcinoma #38 [C38]; test: in vivo chemotherapy of SC transplanted tumor; set-up: species or system mice
From the text: as §2, §3, §4, §5, §6, §7, §8, §9, §10, §11, §12

[4] = tested on: HIV infected human MOLT-4 cells; test: differential killing of HIV infected cells; format: cell-based; conditions: FIGS. 8 and 9
NADH oxidase [5] = test: NADH oxidase activity of soybean hypocotyl plasma membrane vesicles; format: biochemical; conditions: plant soybean hypocotyl tissue, FIG. 11
[6] = tested on: cabbage, radish, carrot, tomato and sorghum seeds; test: seed germination; format: in vivo
Procedure: To evaluate the growth phenotype of a set of plants, a 1 mg concentration of 100 Mm (solution QD-2). This solution was diluted serially with water with or without Triton X-100, ethanol or DMSO and used directly for measurement of effects on seed germination or applied using a microliter syringe to foliage to evaluate growth effects on plants.
With seed germination, the compound was evaluated against five species: cabbage (Early Jersey Wakefield), radish (Scarlet Turnip White Tipped), carrot (Danvers Half Long), tomato (Rutgers) and sorghum (DeKalb 18). With water dilutions, seed germination of all species was inhibited at 10 μM (an aqueous dilution of 10 μl of 100 Mm 1:1000 in 100 μl of water) (Final DMSO concentration of 1:10,000=0.01%). Germination of tomato was inhibited at 10μ1/100 µl of an aqueous dilution of 1:10,000=1 μM final concentration.

HeLa cells = test: growth of HeLa cells under different redox poise; format: cell-based; conditions: 10^−7 M, no drug 725
Procedure: The reduced environment was obtained by addition of 100 μM cysteine and the oxidized environment by addition of 10 μM ter-butylhydroperoxide.

NADH oxidase [7] = test: NADH oxidase activity of rat liver cell fractions; conditions: for pEC50: read-out: ED50, inhibition of NADH oxidase activity
NADH oxidase [8] = test: NADH oxidase activity of CFK microsomes from infected cells; conditions: Plasma membrane-free CFK microsomes (Golgi-enriched) from infected cells
NADH oxidase [9] = test: NADH oxidase activity of CFK microsomes from uninfected cells; conditions: read-out: ED50, inhibition of NADH oxidase activity; Plasma membrane-free CFK microsomes (Golgi-enriched) from uninfected cells

Q: Which “zone of inhibition L1210” value (L1210) does the source give for `CC1=CC(=O)C(O)C2(C)C1CC1OC(=O)C(O)C3C(C)C(O)C4(O)OCC13C42` (stereo not drawn) [Glaucarubolone, glaucarubolone] here?
A: The value was 25:100 ZONE UNITS.

Q: What about the “zone of inhibition CX-1” value (CX-1) of the same molecule?
A: Its value is 100 ZONE UNITS.

Q: What about the “zone of inhibition H8” value (H8) of the same molecule?
A: The value was 650 ZONE UNITS.

Q: And the “solid tumor selectivity in vitro” value [1]?
A: Its value is “demonstrated solid tumor selectivity”.

Q: And the MTD [2]?
A: Its MTD is 151 mg/kg.

Q: What about the Cures ([3]; C38, IV at MTD, cured/total mice) of the same molecule?
A: The Cures was 1/5.

Q: What about the “in vivo activity against C38, in words” value ([3]; mouse, in vivo) of the same molecule?
A: Its value is “therapeutic activity”.

Q: What about the “killing of HIV infected MOLT-4 cells compared to uninfected cells” value [4] of the same molecule?
A: Its value is “differentially killed at two log orders less”.

Q: What about the “inhibition of NADH oxidation, in words” value (NADH oxidase [5]) of the same molecule?
A: The value was “similarly inhibited”.

Q: What about the “lowest concentrations at which inhibitions of germination were observed” value ([6]; DMSO and ethanol dilutions 1:10^6 or 1:10^7, solvents themselves retarded germination) of the same molecule?
A: The value was 10-100 Nm.

Q: And the “concentration at which seed germination was inhibited” value ([6]; all five species, water dilutions)?
A: The value was 10 µM.

Q: What about the “concentration at which seed germination was inhibited” value ([6]; tomato, aqueous dilution 1:10,000) of the same molecule?
A: Its value is 1 µM.

Q: And the “Growth HeLa cells after 72 h, Oxidized” value (HeLa cells; 10 μM ter-butylhydroperoxide)?
A: Its value is 500 cells/mm^2.

Q: What about the “Growth HeLa cells after 72 h, Reduced” value (HeLa cells; 100 μM cysteine) of the same molecule?
A: The value was 700 cells/mm^2.

Q: And the “Growth HeLa cells after 72 h, In situ” value (HeLa cells)?
A: Its value is 720 cells/mm^2.

Q: What about the “inhibition of NADH oxidation, in words” value (NADH oxidase [7]; isolated plasma membranes of liver cells, FIG. 10) of the same molecule?
A: Its value is “inhibits NADH oxidation”.

Q: And the pEC50 (NADH oxidase [7]; Rat liver golgi apparatus)?
A: The pEC50 was under 5.00.

Q: And the pEC50 (NADH oxidase [7]; Rat liver microsomes)?
A: The pEC50 was under 5.00.

Q: What about the pEC50 (NADH oxidase [7]; Rat liver plasma membrane) of the same molecule?
A: The pEC50 was under 5.00.

Q: What about the “ED50, inhibition of NADH oxidase activity” value (NADH oxidase [8]) of the same molecule?
A: The value was >10^−8 M.

Q: What about the pEC50 (NADH oxidase [9]) of the same molecule?
A: Its pEC50 is under 5.00.
